According to US6737383B1, “Herbicidal oxadiazolidines” (priority 1999, dated 2004):

Assays:
[1] = test system: bedstraw; test: Test B pre/postemergence bedstraw; type: in vivo, Galium aparine
How it was run: (§1)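 Herbicidal effect was estimated by eye on a ten-point control scale after plants spent twelve to sixteen days in a greenhouse following soil or foliar treatment. Foliar sprays targeted plants at one to four leaves; all doses were formulated in a non-phytotoxic solvent with surfactant.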

[2] = test system: blackgrass; test: Test B pre/postemergence blackgrass; type: in vivo, Alopecurus myosuroides
How it was run: as §1

[3] = test system: surinam grass; test: Test B pre/postemergence surinam grass; type: in vivo, Brachiaria decumbens
How it was run: as §1

[4] = test system: cocklebur; test: Test B pre/postemergence cocklebur; type: in vivo, Xanthium strumarium
How it was run: as §1

[5] = test system: corn; test: Test B pre/postemergence corn; type: in vivo, Zea mays
How it was run: as §1

[6] = test system: crabgrass; test: Test B pre/postemergence crabgrass; type: in vivo, Digitaria sanguinalis
How it was run: as §1

[7] = test system: giant foxtail; test: Test B pre/postemergence giant foxtail; type: in vivo, Setaria faberii
How it was run: as §1

[8] = test system: morningglory; test: Test B pre/postemergence morningglory; type: in vivo, Ipomoea hederacea
How it was run: as §1

[9] = test system: soybean; test: Test B pre/postemergence soybean; type: in vivo, Glycine max
How it was run: as §1

[10] = test system: velvetleaf; test: Test B pre/postemergence velvetleaf; type: in vivo, Abutilon theophrasti
How it was run: as §1

[11] = test system: wheat; test: Test B pre/postemergence wheat; type: in vivo, Triticum aestivum
How it was run: as §1

[12] = test system: wild oat; test: Test B pre/postemergence wild oat; type: in vivo, Avena fatua
How it was run: as §1

[13] = test system: purple nutsedge; test: Test B pre/postemergence purple nutsedge; type: in vivo, Cyperus rotundus; conditions: Postemergence
How it was run: as §1

[14] = test system: rice; test: Test B flood test rice; type: in vivo, Oryza sativa
How it was run: (§2)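 Read-out is a visual response score from 0 (no effect) to 10 (complete control), assigned by comparison with untreated controls. Treatment was applied at the 2-leaf stage, and plants stayed in the greenhouse for twelve to sixteen days before scoring.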

[15] = test system: smallflower flatsedge; test: Test B flood test smallflower flatsedge; type: in vivo, Cyperus difformis
How it was run: as §2

[16] = test system: duck salad; test: Test B flood test duck salad; type: in vivo, Heteranthera limosa
How it was run: as §2

[17] = test system: bamyardgrass; test: Test B flood test barnyardgrass; type: in vivo, Echinochloa crus-galli
How it was run: as §2

[18] = Preemergence, Rate 62 g/ha, scale of 0 to 10 where 0 is no effect and 10 is complete control
[19] = Preemergence, Rate 250 g/ha, scale of 0 to 10 where 0 is no effect and 10 is complete control
[20] = Preemergence, Rate 500 g/ha, scale of 0 to 10 where 0 is no effect and 10 is complete control
[21] = Rate 62 g/ha, Postemergence, scale of 0 to 10 where 0 is no effect and 10 is complete control
[22] = Rate 125 g/ha, Postemergence, scale 0 to 10
[23] = Rate 125 g/ha, Preemergence, scale of 0 to 10 where 0 is no effect and 10 is complete control
[24] = Rate 500 g/ha, Postemergence, scale 0 to 10, 0 no effect, 10 complete control
[25] = Rate 62 g/ha, headed Pre-emergence (flood test species), scale 0 to 10 (0 no effect, 10 complete control)
[26] = Rate 125 g/ha, Pre-emergence, flood test species, scale 0 to 10 where 0 is no effect and 10 is complete control
[27] = Rate 250 g/ha, Pre-emergence, flood-test species, scale 0 to 10, 0 is no effect, 10 is complete control
[28] = Rate 500 g/ha, Pre-emergence, flood test species, scale 0 to 10 (0 no effect, 10 complete control)

SMILES: CC(C)N(C(=O)n1oc(=O)n(CC2(C)COC2)c1=O)c1ccc(F)cc1 [Compound 226]
- Bedstraw plant response rating [1, 18]: 0
- Bedstraw plant response rating [1, 19]: 0
- Plant response rating, Bedstraw [1, 20]: 0
- Bedstraw plant response rating [1, 21]: 0
- Bedstraw plant response rating [1, 22]: 3
- Bedstraw plant response rating [1, 23]: 0
- Plant response rating (0 to 10; 0 is no effect, 10 is complete control), Bedstraw ([1]; Rate 250 g/ha, Postemergence): 5
- Bedstraw plant response rating [1, 24]: 7
- Blackgrass plant response rating [2, 18]: 10
- Blackgrass plant response rating [2, 19]: 10
- Plant response rating, Blackgrass [2, 20]: 10
- Blackgrass plant response rating [2, 21]: 0
- Blackgrass plant response rating [2, 22]: 5
- Blackgrass plant response rating [2, 23]: 10
- Plant response rating (0 to 10; 0 is no effect, 10 is complete control), Blackgrass ([2]; Rate 250 g/ha, Postemergence): 8
- Blackgrass plant response rating [2, 24]: 9
- B. signalgrass plant response rating [3, 18]: 3
- B. signalgrass plant response rating ([3]; Preemergence, Rate 250 g/ha, scale 0 to 10, 0 is no effect, 10 is complete control): 9
- Plant response rating, B. signalgrass [3, 20]: 10
- B. signalgrass plant response rating [3, 21]: 0
- B. signalgrass plant response rating ([3]; Rate 125 g/ha, Postemergence, scale 0 (no effect) to 10 (complete control)): 2
- B. signalgrass plant response rating [3, 23]: 6
- Plant response rating (0 to 10; 0 is no effect, 10 is complete control), B. signalgrass ([3]; Rate 250 g/ha, Postemergence): 6
- B. signalgrass plant response rating [3, 24]: 9
- Cocklebur plant response rating [4, 18]: 0
- Cocklebur plant response rating [4, 19]: 0
- Plant response rating, Cocklebur [4, 20]: 0
- Cocklebur plant response rating [4, 21]: 0
- Cocklebur plant response rating [4, 22]: 0
- Cocklebur plant response rating [4, 23]: 0
- Plant response rating (0 to 10; 0 is no effect, 10 is complete control), Cocklebur ([4]; Rate 250 g/ha, Postemergence): 0
- Cocklebur plant response rating [4, 24]: 2
- Corn plant response rating [5, 18]: 0
- Corn plant response rating [5, 19]: 6
- Plant response rating, Corn [5, 20]: 9
- Corn plant response rating [5, 21]: 0
- Corn plant response rating [5, 22]: 0
- Corn plant response rating [5, 23]: 0
- Plant response rating (0 to 10; 0 is no effect, 10 is complete control), Corn ([5]; Rate 250 g/ha, Postemergence): 0
- Corn plant response rating [5, 24]: 6
- Crabgrass plant response rating [6, 18]: 5
- Crabgrass plant response rating [6, 19]: 10
- Plant response rating, Crabgrass [6, 20]: 10
- Crabgrass plant response rating [6, 21]: 0
- Crabgrass plant response rating [6, 22]: 0
- Crabgrass plant response rating [6, 23]: 9
- Plant response rating (0 to 10; 0 is no effect, 10 is complete control), Crabgrass ([6]; Rate 250 g/ha, Postemergence): 3
- Crabgrass plant response rating [6, 24]: 8
- Giant foxtail plant response rating [7, 18]: 9
- Giant foxtail plant response rating [7, 19]: 10
- Plant response rating, Giant foxtail [7, 20]: 10
- Giant foxtail plant response rating [7, 21]: 2
- Giant foxtail plant response rating [7, 22]: 7
- Giant foxtail plant response rating [7, 23]: 10
- Plant response rating (0 to 10; 0 is no effect, 10 is complete control), Giant foxtail ([7]; Rate 250 g/ha, Postemergence): 7
- Giant foxtail plant response rating [7, 24]: 7
- Morningglory plant response rating [8, 18]: 0
- Morningglory plant response rating [8, 19]: 7
- Plant response rating, Morningglory [8, 20]: 8
- Morningglory plant response rating [8, 21]: 5
- Morningglory plant response rating [8, 22]: 7
- Morningglory plant response rating [8, 23]: 0
- Plant response rating (0 to 10; 0 is no effect, 10 is complete control), Morningglory ([8]; Rate 250 g/ha, Postemergence): 7
- Morningglory plant response rating [8, 24]: 7
- Soybean plant response rating [9, 18]: 0
- Soybean plant response rating [9, 19]: 0
- Plant response rating, Soybean [9, 20]: 0
- Soybean plant response rating [9, 21]: 2
- Soybean plant response rating [9, 22]: 2
- Soybean plant response rating [9, 23]: 0
- Plant response rating (0 to 10; 0 is no effect, 10 is complete control), Soybean ([9]; Rate 250 g/ha, Postemergence): 3
- Soybean plant response rating [9, 24]: 6
- Velvetleaf plant response rating [10, 18]: 2
- Velvetleaf plant response rating [10, 19]: 6
- Plant response rating, Velvetleaf [10, 20]: 7
- Velvetleaf plant response rating [10, 21]: 0
- Velvetleaf plant response rating [10, 22]: 0
- Velvetleaf plant response rating [10, 23]: 5
- Plant response rating (0 to 10; 0 is no effect, 10 is complete control), Velvetleaf ([10]; Rate 250 g/ha, Postemergence): 0
- Velvetleaf plant response rating [10, 24]: 0
- Wheat plant response rating [11, 18]: 6
- Wheat plant response rating [11, 19]: 8
- Plant response rating, Wheat [11, 20]: 8
- Wheat plant response rating [11, 21]: 2
- Wheat plant response rating [11, 22]: 4
- Wheat plant response rating [11, 23]: 8
- Plant response rating (0 to 10; 0 is no effect, 10 is complete control), Wheat ([11]; Rate 250 g/ha, Postemergence): 7
- Wheat plant response rating [11, 24]: 9
- Wild oats plant response rating [12, 18]: 1
- Wild oats plant response rating [12, 19]: 9
- Plant response rating, Wild oats [12, 20]: 10
- Wild oats plant response rating [12, 21]: 0
- Wild oats plant response rating [12, 22]: 0
- Wild oats plant response rating [12, 23]: 3
- Plant response rating (0 to 10; 0 is no effect, 10 is complete control), Wild oats ([12]; Rate 250 g/ha, Postemergence): 0
- Wild oats plant response rating [12, 24]: 3
- Nutsedge plant response rating ([13]; Rate 62 g/ha, scale of 0 to 10 where 0 is no effect and 10 is complete control): 0
- Nutsedge plant response rating ([13]; Rate 125 g/ha, scale 0 to 10): 0
- Plant response rating (0 to 10; 0 is no effect, 10 is complete control), Nutsedge ([13]; Rate 250 g/ha): 0
- Nutsedge plant response rating ([13]; Rate 500 g/ha, scale 0 to 10, 0 no effect, 10 complete control): 4
- Rice plant response rating [14, 25]: 0
- Rice plant response rating [14, 26]: 0
- Rice plant response rating [14, 27]: 0
- Rice plant response rating [14, 28]: 0
- S. Flatsedge plant response rating [15, 25]: 0
- S. Flatsedge plant response rating [15, 26]: 0
- S. Flatsedge plant response rating [15, 27]: 0
- S. Flatsedge plant response rating [15, 28]: 0
- Ducksalad plant response rating [16, 25]: 0
- Ducksalad plant response rating [16, 26]: 0
- Ducksalad plant response rating [16, 27]: 0
- Ducksalad plant response rating [16, 28]: 0
- Barnyardgrass plant response rating [17, 25]: 0
- Barnyardgrass plant response rating [17, 26]: 0
- Barnyardgrass plant response rating [17, 27]: 0
- Barnyardgrass plant response rating [17, 28]: 0
